Results from patent publication US9145424B2, “Treatment of amyotrophic lateral sclerosis” (Northwestern University, priority 2008, dated 2015).
Entries after “also recorded” stand apart in the source; their conditions may differ. Read-outs that look alike come from different tables or passages of the source. Where a SMILES comes first, the peptide text is derived from it. The star is where a group is joined. Cbz = O=C(OCc1ccccc1)*

How the values were obtained:
[1] = system: proteasome activity (Ubi-YFP degradation); assay: Proteasome activity assay (Ubi-YFP in HeLa cells); assay type: cell-based
Method: FIG. 7. Arylsulfanyl pyrazolones prevent MG132-induced accumulation of Ubi-YFP. HeLa cells were co-transfected with Ubi-YFP and CMV-CFP plasmids, treated with 1 μM MG132 and 25 μM arylsulfanyl pyrazolones and Ubi-YFP fluorescence intensity normalized to CFP.
Since the CMB-003299 cytotoxicity of SOD1 protein aggregates may involve inhibition of proteasome activity, compounds that stimulate proteasome activity could reverse or prevent mutant SOD1-induced cytotoxicity. Thus, active compounds were tested for the ability to stimulate proteasome activity using a cell line expressing ubiquitin-conjugated YFP [Ubi-YFP 74]. In these cells, increased proteasome activity causes increased degradation of Ubi-YFP and decreased YFP fluorescence. Conversely, compounds that inhibit proteasome activity increase accumulation of Ubi-YFP and enhanced YFP fluorescence. As expected, MG132 augments YFP fluorescence intensity ˜3-fold compared to untreated controls (FIG. 7). […] Protein aggregates are present in the absence of MG132 and aggregation is suppressed following treatment with a provided compound.
HeLa cells (20,000/chamber) were plated on 8 chambered Tissue-tek coverglass pretreated with 1 mg/ml poly-D-lysine and allowed to adhere for 18 h at 37° C./5% CO2. Cells were transfected with 0.2 μg each CMV-CFP and Ubi-YFP plasmids using Lipofectamine 2000 according to manufacturer's instructions. Cells were allowed to express CFP and Ubi-YFP for 18 h followed by a 6 h incubation with test compounds (25 μM). MG132 (1 μM) was added for a final 18 h incubation and Ubi-YFP degradation assessed by fluorescence microscopy. Fluorescence intensity of CFP and YFP was calculated on a cell-by-cell basis from captured images using AxioVision software (Zeiss). YFP fluorescence was normalized to CFP fluorescence.

[2] = In vitro ADME: metabolic potential / microsomal stability, species not stated
Method: Metabolism (microsome, S9 fraction, CYP450): Liver Cytochrome P450 (CYP450) enzymes are the major route for xenobiotic metabolism and microsomal and hepatocyte stability is the best predictor of pharmacokinetic half-life. Cross-species comparisons of metabolism in liver microsomes can predict potential issues with liver toxicity in humans. Selected active compounds are tested in liver microsomes from efficacy species (mouse), toxicity species (rat, dog, monkey), and humans for metabolic stability.
CMB-003319 was evaluated for its in vitro ADME properties.
Compounds were sent for in vitro ADME tests to evaluate their ADME properties.

[3] = system: Caco-2; assay: In vitro Caco-2 permeability; assay type: in vitro ADME
Method: General Permeability: High membrane permeability is required for effective GI absorption and optimal bioavailability. Passive permeability is typically assessed in the PAMPA artificial membrane assay (Kansy et al., J. Med. Chem. 2002, 45(8), 1712-1722). Cell-based permeability determinations using the Caco-2 cell assay are more resource intensive but more predictive of active transport or efflux in vivo (Artursson et al., Adv. Drug. Deliv. Rev. 2001, 46(1-3), 27-43). Caco-2 assays are performed as needed during SAR development.

[4] = assay type: in vitro ADME; settings: male, Sprague Dawley, 15 μM, pH 7.4; for % Mean ± S.E. / RR Mean (Response Ratio): rat
[5] = Aqueous solubility; assay type: physicochemical
Method: Solubility: Because compounds are stored in DMSO, it is necessary to determine aqueous solubility of initial hit compounds and their analogs. High solubility in aqueous solution is necessary for high GI absorption, bioavailability, and for chemical formulation. Compounds should be soluble in aqueous solution at >10 μg/ml. Solubility of >50 μg/ml is preferred.

[6] = In vitro plasma stability; assay type: in vitro ADME
Method: Plasma stability: Plasma stability of active compounds is assessed in efficacy species (mouse), toxicity species (rat, dog, monkey), and human cells.

[7] = system: PC12 cells expressing G85R SOD1; assay: Mutant SOD1 protein aggregation assay; assay type: cell-based
From the text: Compounds that are active in the above assay could theoretically protect against mutant SOD1-induced cytotoxicity through a number of mechanisms, including the following: 1) compounds could nonspecifically block or reverse protein aggregation via chaperone induction, as observed for radicicol and geldanamycin; 2) compounds could block or reverse the aggregation of a specific aggregated protein form; 3) compounds could interfere with an event downstream of protein aggregation that plays a critical role in mutant SOD1-induced cytotoxicity (e.g., proteasome function); and 4) compounds could act directly on SOD1 in a manner that prevents mutant SOD1 aggregation. These possibilities were tested using an assay that directly measures protein aggregation. In addition, unlike the high throughput cytotoxicity protection assay, the protein aggregation assay is based on G85R SOD1; this broadens the scope of the screening strategy, and should eliminate compounds with highly specific activity (i.e., G93A SOD1 limited) against protein aggregation.
(§1) In PC12 cells that express wild-type SOD1, SOD1 was diffusely localized throughout the cell (Matsumoto et al., J. Cell. Biol. 2005, 171(1), 75-85). […] Therefore, these effects are likely to be due to MG132-induced proteasome inhibition, and not due to an off-target effect of MG132.
The identification of a positive control is a crucial step in assay development. Thus, PC12 cells expressing G85R or G93A mutant SOD1 were treated with MG132 to induce protein aggregation, and then co-treated with candidate chemical suppressors of protein aggregation. […]
To allow this assay to be used in a high-throughput manner, a Cellomics Arrayscan® high content microscopy system was used for screening and quantification. […]
Arrayscan images were recorded using a 20× objective and the XF93-TRITC filter set in channel 1 for the Image-iT WGA plasma membrane dye or the XF93-FITC filter set for SOD1-YFP and analyzed using Cellomics spot detector software. […] Data were recorded as spot count (aggregate)/object (cell).

[8] = system: PC12 cells that express mutant G93A SOD1; assay: Mutant SOD1-induced cytotoxicity protection assay; settings: rat, 48 h
Method: This idea was tested by examining the sensitivity of PC12 cells to SOD1 aggregates in the presence and absence of proteasome inhibitor MG132. PC12 cells expressing no SOD1, wild type SOD1, G85R SOD1 or G93A SOD1 were grown with or without MG132 (FIG. 1).
PC12 cells expressing G93A SOD1 were treated with 100 nM MG132 with or without co-treatment with geldanamycin or radicicol.

[9] = system: PC12 cells expressing G93A mutant SOD1; assay: Mutant SOD1 protein aggregation; assay type: cell-based
Method: as §1
The identification of a positive control is a crucial step in assay development. Thus, PC12 cells expressing G85R or G93A mutant SOD1 were treated with MG132 to induce protein aggregation, and then co-treated with candidate chemical suppressors of protein aggregation. Two compounds with similar activity were identified in these experiments: geldanamycin and radicicol. Both compounds induce heat shock transcription factor […], which in turn induces the heat shock response (FIG. 4).
Mechanism of action studies have been initiated for provided compounds. provided compounds active in the cytotoxicity protection assay were initially assayed for the ability to prevent SOD1 aggregation using manual, low-throughput methods. […] The ability of provided compounds to induce expression of molecular chaperones was also tested using stably-transfected HeLa cells (HeLa hse-luc) expressing a luciferase reporter gene under the control of the human HSP70 promoter. […]

[10] = system: PC12 cells expressing wild-type SOD1; assay: SOD1 protein aggregation, wild type control line; assay type: cell-based; settings: cells treated with MG132
Method: FIGS. 3A-F. Mutant but not wild type SOD1 aggregates in cells treated with the proteasome inhibitor MG132. Fluorescence micrographs of PC12 cells expressing YFP tagged wild type (WT), G93A mutant (G93A), and G85R mutant (G85R)SOD1 proteins (3A-C). The micrographs show the effects of treating cells with 200 nM MG132 for 24 hours (untreated cells are shown in insets on left, 3D-F, respectively). The wild type SOD1 expressing cells are unaffected while cells expressing mutant SOD1 show large perinuclear aggregates.
as §1

[11] = system: PC12 cells expressing no SOD1, wild type SOD1 and G85R SOD1; assay: Sensitivity of PC12 cells to proteasome inhibitor, calcein-AM viability; assay type: cell-based
Method: (§2) FIGS. 1A-C. […] Cell survival was determined using the viability stain calcein-AM.

[12] = system: PC12 cells expressing G93A SOD1; assay: as above; assay type: cell-based
Method: as §2

[13] = system: human HSP70 promoter; assay: Activation of cellular heat shock response (HeLa hse-luc luciferase reporter); assay type: cell-based; settings: 8 h
Method: FIG. 6. Arylsulfanyl pyrazolones fail to induce heat shock response in Hsp 70 promoter assays. HeLa hse-luc cells were treated with arylsulfanyl pyrazolones (1 μM-100 μM), celestrol (1 μM-5 μM), or CdCl2 (10 μM-100 μM), for 8 h and activation of the heat shock response determined by HSP70 promoter activity.
Mechanism of action studies have been initiated for provided compounds. provided compounds active in the cytotoxicity protection assay were initially assayed for the ability to prevent SOD1 aggregation using manual, low-throughput methods. […] The ability of provided compounds to induce expression of molecular chaperones was also tested using stably-transfected HeLa cells (HeLa hse-luc) expressing a luciferase reporter gene under the control of the human HSP70 promoter. This HeLa hse-luc reporter system was used previously to identify small-molecule activators of the heat shock response (Westerheide et al. J. Biol. Chem. 2004, 279(53), 56053-56060).
HeLa cells, stably transfected with a luciferase reporter plasmid under control of the HSP70 promoter, were plated in a 96 well plate at a density of 7500 cells/100 μl. […] Cells were lysed by the addition of 100 μl BrightGlo reagent (Promega) according to manufacturer's instructions and luciferase activity measured by quantifying luminescence signal. […]

[14] = NADPH dependent rat liver microsomal metabolite study by HPLC; assay type: in vitro ADME; settings: NADPH dependent rat liver microsomes, up to 60 minutes
Method: TC-II-68 and TC-II-70 were proposed as possible metabolites and prepared before the study.
After 0, 5, 10, 20, 40, and 60 minutes incubation with rat liver microsome, 50 μL acetonitrile was added to quench reactions. The reaction mixture was vortexed and incubated in an ice bath for 2 h. The samples were centrifuged to remove the precipitated protein. The supernatant solutions were loaded directly for HPLC analysis.

In the case of Cc1cc(SCc2cc(=O)[nH][nH]2)c(Cl)cc1Cl [CMB-003319], the “effect on MG132-induced Ubi-YFP fluorescence” value ([1]; 25 μM compound, 1 μM MG132) is reported as “strongly inhibit”, the metabolic potential [2] is reported as “medium” and the “CaCO-2 permeability, in words” value [3] is reported as “medium”. The “rat liver microsomal stability, in words” value [4] was “poor microsomal stability”, the “aqueous-solubility, in words” value [5] was “medium” and the “plasma stability, in words” value [6] was “poor”.

In the case of C[C@@H]1C[C@H]2O[C@@H]2/C=C\C=C\C(=O)Cc2c(Cl)c(O)cc(O)c2C(=O)O1 [Radicicol, reference compound], the “proportion of cells with aggregates” value ([7]; G85R or G93A mutant SOD1 cells, MG132 plus co-treatment, 75% without) is reported as 25%, the “effect on protein aggregation, in words” value ([7]; MG132-induced aggregation) is reported as “decreases mutant SOD1 aggregation” and the “efficacy (maximum viability at optimum dosage)” value [8] is reported as 80%. The “effect on protein aggregation, in words” value ([9]; MG132-treated cells) was “reduced formation of protein aggregates”.

For CC(C)C[C@@H](C=O)NC(=O)[C@H](CC(C)C)NC(=O)[C@H](CC(C)C)NC(=O)OCc1ccccc1 [MG132] (Cbz-Leu-Leu-Leu-aldehyde), the “YFP fluorescence intensity compared to untreated controls” value ([1]; 1 μM) was ~3 fold, the “cells containing protein aggregates” value ([7]; cells treated with MG132) was “up to 75%” and the “aggregation, in words” value [10] was “no aggregation was observed”. For the same compound, the “toxicity, in words” value ([11]; 100 nM, 24 hours, any of the cell lines) was “no toxicity”, the IC50 ([11]; Rattus norvegicus, PC-12, cells expressing no SOD1, wild type SOD1 and G85R SOD1, read-out: IC50 of proteasome inhibitor on cell viability) was ~400 nM and the “sensitivity of G93A SOD1 cells relative to the other lines” value [12] was “approximately 5 fold”. For the same compound, the “toxicity, in words” value ([12]; 100 nM, 48 hours) was “selectively toxic”, the IC50 ([12]; Rattus norvegicus, PC-12, read-out: IC50 of proteasome inhibitor on cell viability) was ~75 nM and the “cells with protein aggregates” value ([9]; following treatment with MG132) was ~75%.

In the case of [Cl][Cd][Cl] [CdCl2], the “luciferase activity (HSP70 promoter)” value [13] is reported as “strongly induced luciferase activity”.

In the case of CC1=C(O)C(=O)C=C2C1=CC=C1[C@@]2(C)CC[C@@]2(C)[C@@H]3C[C@](C)(C(=O)O)CC[C@]3(C)CC[C@]12C [celastrol, celestrol], the “luciferase activity (HSP70 promoter)” value [13] is reported as “strongly induced luciferase activity”.

In the case of O=c1cc(CSc2ccc(Cl)cc2)[nH][nH]1 [TC-I-165, 5-((4-Chlorophenylthio)methyl)-1H-pyrazol-3(2H)-one], the microsomal metabolites [14] is reported as “only TC-II-68 was a direct metabolite; also recorded: the only direct metabolite from TC-I-165 was TC-II-68; also recorded: TC-II-70 is not a metabolite”, the “% Mean ± S.E.” value ([4]; 0 min) is reported as 100 ± 26.4% and the “RR Mean (Response Ratio)” value ([4]; 0 min) is reported as 2.529. The “% Mean ± S.E.” value ([4]; 20 min) was 12.4 ± 0.89% and the “RR Mean (Response Ratio)” value ([4]; 20 min) was 0.314.
